Test results as given in ChEMBL document CHEMBL5537171, “Design, Synthesis, and Biological Evaluation of Potent and Selective PROTAC Degraders of Oncogenic KRASG12D” (J Med Chem, 2024).
pIC50: −log10 of the molar value. The source made the active and inactive calls. No cut-off for these calls is given here.

Experiments:
[1] = target: T1, von Hippel-Lindau disease tumor suppressor/GTPase KRas (Homo sapiens, UniProt P01116+P40337, G12D); experiment: PROTAC activity at VHL/KRAS G12D mutant in human HPAF-II cells assessed as induction of protein degradation incubated for 24 hrs by Western blot analysis; type: cell-based
[2] = MRT (infinity) in BALB/c mouse at 10 mg/kg, sc by LC-MS/MS analysis; type: ADME, organism-based; details: in vivo
Panc 04.03 = experiment: Antiproliferative activity against human Panc 04.03 cells harboring KRAS G12D mutant assessed as inhibition of cell viability incubated for 5 days by Cell Titer Glo assay; type: functional, cell-based; details: Panc 04.03, 120 h
[3] = system: von Hippel-Lindau disease tumor suppressor/GTPase KRas (Homo sapiens), P01116+P40337 [G12D]; experiment: PROTAC activity at VHL/KRAS G12D mutant in human ASPC1 cells assessed as induction of protein degradation at 1 uM pretreated with MG-132 followed by compound treatment for 6 hrs by Western blot analysis; type: cell-based
ASPC1 [4] = experiment: Antiproliferative activity against human ASPC1 cells harboring KRAS G12D mutant assessed as inhibition of cell viability incubated for 5 days by Cell Titer Glo assay; type: functional, cell-based; details: ASPC1, 120 h
[5] = Competitive binding affinity to His-tagged VHL/Elongin C/Elongin B (unknown origin) by FP assay; parameters: species or system Homo sapiens
[6] = target: T1, von Hippel-Lindau disease tumor suppressor/GTPase KRas; experiment: PROTAC activity at VHL/KRAS G12D mutant in human SNU1 cells assessed as inhibition of pERK level incubated for 24 hrs by Western blot analysis; type: cell-based
[7] = target: T1, von Hippel-Lindau disease tumor suppressor/GTPase KRas; experiment: PROTAC activity at VHL/KRAS G12D mutant in human ASPC1 cells assessed as inhibition of pERK level incubated for 24 hrs by Western blot analysis; type: cell-based
SNU1 = experiment: Antiproliferative activity against human SNU1 cells harboring KRAS G12D mutant assessed as inhibition of cell viability incubated for 5 days by Cell Titer Glo assay; type: functional, cell-based; details: SNU1, 120 h
[8] = system: von Hippel-Lindau disease tumor suppressor/GTPase KRas (Homo sapiens), P01116+P40337 [G12D]; experiment: PROTAC activity at VHL/KRAS G12D mutant in human ASPC1 cells assessed as induction of protein degradation incubated for 24 hrs by Western blot analysis relative to control; type: cell-based
[9] = Drug uptake in human ASPC1 cells at 10 uM incubated for 1 hr by MS analysis; type: ADME, cell-based; details: aspc1, 1 h
[10] = system: von Hippel-Lindau disease tumor suppressor/GTPase KRas (Homo sapiens), P01116+P40337 [G12D]; experiment: PROTAC activity at VHL/KRAS G12D mutant in human ASPC1 cells assessed as induction of protein degradation at 1 uM pretreated with chloroquine followed by compound treatment for 6 hrs by Western blot analysis; type: cell-based
[11] = system: von Hippel-Lindau disease tumor suppressor/GTPase KRas (Homo sapiens), P01116+P40337 [G12D]; experiment: PROTAC activity at VHL/KRAS G12D mutant in human ASPC1 cells assessed as induction of protein degradation at 1 uM pretreated with BafA1 followed by compound treatment for 6 hrs by Western blot analysis; type: cell-based
[12] = target: T1, von Hippel-Lindau disease tumor suppressor/GTPase KRas; experiment: PROTAC activity at VHL/KRAS G12D mutant in human SNU1 cells assessed as induction of protein degradation incubated for 24 hrs by Western blot analysis; type: cell-based
[13] = system: von Hippel-Lindau disease tumor suppressor/GTPase KRas (Homo sapiens), P01116+P40337 [G12D]; experiment: PROTAC activity at VHL/KRAS G12D mutant in human ASPC1 cells assessed as induction of protein degradation at 0.1 uM incubated for 24 hrs by Western blot analysis relative to control; type: cell-based
ASPC1 [14] = experiment: Antiproliferative activity against human ASPC1 cells assessed as inhibition of cell viability incubated for 120 hrs of continuous treatment by Cell Titer Glo assay; type: functional, cell-based; details: ASPC1, 120 h
[15] = system: von Hippel-Lindau disease tumor suppressor/GTPase KRas (Homo sapiens), P01116+P40337 [G12D]; experiment: PROTAC activity at VHL/KRAS G12D mutant in human SNU1 cells assessed as decrease in pERK level at 1 uM incubated upto 24 hrs by Western blot analysis; type: cell-based
[16] = system: von Hippel-Lindau disease tumor suppressor/GTPase KRas (Homo sapiens), P01116+P40337 [G12V]; experiment: PROTAC activity at VHL/KRAS G12V mutant in human SK-CO-1 cells assessed as induction of protein degradation at 0.1 uM incubated for 24 hrs by Western blot analysis; type: cell-based
[17] = Selectivity index, ratio of IC50 for human ASPC1 cells assessed as inhibition of cell viability incubated for 6 hrs followed by compound washout measured after 114 hrs by Cell Titer Glo assay to IC50 for human ASPC1 cells assessed as inhibition of cell viability incubated for 120 hrs of continuous treatment by Cell Titer Glo assay; type: functional
[18] = Toxicity in BALB/c nude mouse xenografted with human ASPC1 cells assessed as drug tolerance at 50 mg/kg, sc for 22 days; type: organism-based; details: in vivo, 528 h, time 22 day
ASPC1 [19] = experiment: Downregulation of KRT5 level in human ASPC1 cells at 0.1 uM incubated for 6 hrs by DIA-based proteomic analysis; type: functional, cell-based
[20] = system: von Hippel-Lindau disease tumor suppressor/GTPase KRas (Homo sapiens), P01116+P40337 [G12D]; experiment: PROTAC activity at VHL/KRAS G12D mutant in human ASPC1 cells assessed as induction protein degradation at 1 uM measured for 2 to 24 hrs by Western blot analysis; type: cell-based; details: time 2-24 hrs
[21] = system: von Hippel-Lindau disease tumor suppressor/GTPase KRas (Homo sapiens), P01116+P40337 [G12D]; experiment: In vivo PROTAC activity at VHL/KRAS G12D mutant in human ASPC1 cells xenografted in BALB/c nude mouse assessed as decrease in DUSP4 mRNA level at 50 mg/kg, sc measured for 24 hrs by RT-qPCR analysis; type: functional, organism-based
[22] = AUC (infinity) in BALB/c mouse at 10 mg/kg, sc by LC-MS/MS analysis; type: ADME, organism-based; details: in vivo
[23] = system: von Hippel-Lindau disease tumor suppressor/GTPase KRas (Homo sapiens), P01116+P40337 [G12D]; experiment: PROTAC activity at VHL/KRAS G12D mutant in human ASPC1 cells assessed as decrease in pERK level at 1 uM incubated upto 24 hrs by Western blot analysis; type: cell-based
AGS = experiment: Antiproliferative activity against human AGS cells harboring KRAS G12D mutant assessed as inhibition of cell viability incubated for 5 days by Cell Titer Glo assay; type: functional, cell-based; details: 120 h
[24] = Half life in BALB/c mouse at 10 mg/kg, sc by LC-MS/MS analysis; type: ADME, organism-based; details: in vivo
[25] = Toxicity in BALB/c nude mouse xenografted with human ASPC1 cells assessed as body weight loss at 50 mg/kg, sc for 22 days; type: organism-based; details: in vivo, 528 h, time 22 day
NCI-H358 = experiment: Antiproliferative activity against human NCI-H358 cells harboring KRAS G12C mutant assessed as inhibition of cell viability incubated for 5 days by Cell Titer Glo assay; type: functional, cell-based; details: NCI-H358, 120 h
ASPC1 [26] = experiment: Downregulation of KRT14 level in human ASPC1 cells at 0.1 uM incubated for 6 hrs by DIA-based proteomic analysis; type: functional, cell-based
Homo sapiens = organism: Homo sapiens; experiment: Binding affinity to His-tagged VHL/Elongin C/Elongin B/GST-tagged KRAS G12D mutant (unknown origin) incubated for 1 hr by HTRF assay
[27] = system: von Hippel-Lindau disease tumor suppressor/GTPase KRas (Homo sapiens), P01116+P40337 [G12R]; experiment: PROTAC activity at VHL/KRAS G12R mutant in human CAL-62 cells assessed as induction of protein degradation at 0.1 uM incubated for 24 hrs by Western blot analysis; type: cell-based
ASPC1 [28] = experiment: Downregulation of DUSP4 level in human ASPC1 cells at 0.1 uM incubated for 6 hrs by DIA-based proteomic analysis; type: functional, cell-based
ASPC1 [29] = experiment: Antitumor activity in human ASPC1 cells xenografted in BALB/c nude mouse assessed as tumor growth inhibition at 50 mg/kg, sc administered once per three days for 22 days relative to control; type: functional; details: ASPC1, 528 h, time 22 day, read-out: TGI

T1 sequence (P01116 whole entry G12D, stated change not applied): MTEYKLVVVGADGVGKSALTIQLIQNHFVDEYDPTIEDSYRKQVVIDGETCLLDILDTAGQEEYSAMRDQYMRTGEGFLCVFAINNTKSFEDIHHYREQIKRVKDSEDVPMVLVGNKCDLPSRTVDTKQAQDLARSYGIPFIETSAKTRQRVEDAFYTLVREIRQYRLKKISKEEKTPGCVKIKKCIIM
T1 sequence (P40337 whole entry, stated change not applied): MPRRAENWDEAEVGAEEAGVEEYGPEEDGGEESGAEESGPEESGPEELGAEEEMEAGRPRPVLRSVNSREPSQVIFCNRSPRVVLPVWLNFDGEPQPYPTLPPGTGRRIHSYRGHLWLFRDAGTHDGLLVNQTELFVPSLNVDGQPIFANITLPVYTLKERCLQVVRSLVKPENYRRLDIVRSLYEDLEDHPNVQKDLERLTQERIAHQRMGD
von Hippel-Lindau disease tumor suppressor/GTPase KRas (Homo sapiens), P01116+P40337 [G12D], sequence (P01116 whole entry G12D): as the sequence (P01116 whole entry G12D, stated change not applied) above
von Hippel-Lindau disease tumor suppressor/GTPase KRas (Homo sapiens), P01116+P40337 [G12D], sequence (P40337 whole entry partner): as the sequence (P40337 whole entry, stated change not applied) above

SMILES: CCc1c(F)ccc2cc(O)cc(-c3ncc4c(N5C[C@H]6CC[C@@H](C5)N6)nc(OC[C@@H]5CCCN5CCCCOCC(=O)N[C@H](C(=O)N5C[C@H](O)C[C@H]5C(=O)N[C@@H](C)c5ccc(-c6scnc6C)cc5)C(C)(C)C)nc4c3F)c12
- DC50 [1]: 0.053 µM
- MRT inf [2]: 9.33 h
- pIC50 (Panc 04.03): 7.29
- Activity [3]: inactive
- pIC50 (ASPC1 [4]): 7.22
- pIC50 [5]: 6.52
- pIC50 [6]: 7.75
- pIC50 [7]: 7.28
- pIC50 (SNU1): 7.36
- Emax [8]: 98.9%
- Drug uptake [9]: Active
- Activity [10]: Active
- Activity [11]: Active
- DC50 [12]: 0.0198 µM
- Activity [13]: 75.8%
- pIC50 (ASPC1 [14]): 7.21
- Activity [15]: Active
- Activity [16]: inactive
- Ratio IC50 [17]: 3.78
- Activity [18]: Non-Toxic
- Activity (ASPC1 [19]): Active
- Activity [20]: Active
- Activity [21]: Active
- AUC(0-inf) [22]: 5060 ng·h/mL
- Activity [23]: Active
- pIC50 (AGS): 7.50
- half-life [24]: 8.7 h
- Activity [25]: Non-Toxic
- pIC50 (NCI-H358): < 5.05
- Activity (ASPC1 [26]): Active
- Activity (Homo sapiens): Active
- Activity [27]: inactive
- Activity (ASPC1 [28]): Active
- inhibition in vivo at 50 mg/kg (ASPC1 [29]): 50.9%
